Assay results reported in patent publication US20220119354A1, “DIAMINO-SUBSTITUTED PYRIDINES AND PYRIMIDINES AS HERBICIDES” (FMC Corporation, priority 2019, published 2022).

Tests used:
Format in all cases: in vivo
[1] = test system: ryegrass, Italian (Lolium multiflorum); test: Test A postemergence, Italian ryegrass; settings: 0 to 100 scale, 0 no effect, 100 complete control
Outline: (§1)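 Greenhouse pot test, loam/sand soil. Pre: directed soil spray at planting; post: foliar spray at 1–2 leaf stage (2–10 cm). Chemical in non-phytotoxic solvent + surfactant. Visual rating ~10 d, 0 = no effect, 100 = complete control.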

[2] = test system: pigweed (Amaranthus retroflexus); test: Test A postemergence, pigweed; settings: 0 to 100 scale, 0 no effect, 100 complete control
Outline: as §1

[3] = test system: sedge, umbrella (small-flower umbrella sedge, Cyperus difformis); test: Test B flooded paddy test, umbrella sedge; settings: Flood, 250 g ai/ha, applied to paddy water, 2-leaf stage, visual evaluation after 13 to 15 d
Outline: (§2)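 Growth to two leaves preceded treatment. Flooding to 3 cm above soil surface, then water-applied compound; depth kept constant. Scored visually relative to controls after 13–15 d greenhouse; 100 means full control.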

[4] = test system: ragweed (common ragweed, Ambrosia elatior); test: Test A postemergence, ragweed; settings: 0 to 100 scale, 0 no effect, 100 complete control
Outline: as §1

rice (Oryza sativa) = test: Test B flooded paddy test, rice; settings: Flood, 250 g ai/ha, applied to paddy water, 2-leaf stage, visual evaluation after 13 to 15 d
Outline: as §2

[5] = test system: barnyardgrass (Echinochloa crus-galli); test: Test B flooded paddy test, barnyardgrass; settings: Flood, 250 g ai/ha, applied to paddy water, 2-leaf stage, visual evaluation after 13 to 15 d
Outline: as §2

[6] = test system: foxtail, giant (Setaria faberii); test: Test A preemergence, giant foxtail; settings: 0 to 100 scale, 0 is no effect, 100 is complete control
Outline: as §1

[7] = test system: pigweed (Amaranthus retroflexus); test: Test A preemergence, pigweed; settings: 0 to 100 scale, 0 is no effect, 100 is complete control
Outline: as §1

[8] = test system: ragweed (common ragweed, Ambrosia elatior); test: Test A preemergence, ragweed; settings: 0 to 100 scale, 0 is no effect, 100 is complete control
Outline: as §1

corn (Zea mays) = test: Test A postemergence, corn; settings: 0 to 100 scale, 0 no effect, 100 complete control
Outline: as §1

[9] = test system: ducksalad (Heteranthera limosa); test: Test B flooded paddy test, ducksalad; settings: Flood, 250 g ai/ha, applied to paddy water, 2-leaf stage, visual evaluation after 13 to 15 d
Outline: as §2

[10] = test system: blackgrass (Alopecurus myosuroides); test: Test A postemergence, blackgrass; settings: 0 to 100 scale, 0 no effect, 100 complete control
Outline: as §1

[11] = test system: ryegrass, Italian (Lolium multiflorum); test: Test A preemergence, Italian ryegrass; settings: 0 to 100 scale, 0 is no effect, 100 is complete control
Outline: as §1

kochia (Kochia scoparia) [12] = test: Test A postemergence, kochia; settings: 0 to 100 scale, 0 no effect, 100 complete control
Outline: as §1

[13] = test system: barnyardgrass (Echinochloa crus-galli); test: Test A postemergence, barnyardgrass; settings: 0 to 100 scale, 0 no effect, 100 complete control
Outline: as §1

[14] = test system: wheat (Triticum aestivum); test: Test A postemergence, wheat; settings: 0 to 100 scale, 0 no effect, 100 complete control
Outline: as §1

[15] = test system: barnyardgrass (Echinochloa crus-galli); test: Test A preemergence, barnyardgrass; settings: 0 to 100 scale, 0 is no effect, 100 is complete control
Outline: as §1

[16] = test system: foxtail, giant (Setaria faberii); test: Test A postemergence, giant foxtail; settings: 0 to 100 scale, 0 no effect, 100 complete control
Outline: as §1

[17] = test system: galium (catchweed bedstraw, Galium aparine); test: Test A postemergence, galium; settings: 0 to 100 scale, 0 no effect, 100 complete control
Outline: as §1

kochia (Kochia scoparia) [18] = test: Test A preemergence, kochia; settings: 0 to 100 scale, 0 is no effect, 100 is complete control
Outline: as §1

Structure (SMILES) | Plant response rating, Ryegrass, Italian ([1]; 31 g ai/ha) | Plant response rating, Ryegrass, Italian ([1]; 125 g ai/ha) | Plant response rating, Pigweed ([2]; 31 g ai/ha) | Plant response rating, Pigweed ([2]; 125 g ai/ha) | Plant response rating, Sedge, Umbrella (0 to 100 scale, 0 is no effect, 100 is complete control) [3] | Plant response rating, Ragweed ([4]; 31 g ai/ha) | Plant response rating, Ragweed ([4]; 125 g ai/ha) | Plant response rating, Rice (0 to 100 scale, 0 is no effect, 100 is complete control) (rice (Oryza sativa)) | Plant response rating, Barnyardgrass (0 to 100 scale, 0 is no effect, 100 is complete control) [5] | Foxtail, Giant plant response rating ([6]; 31 g ai/ha) | Foxtail, Giant plant response rating ([6]; 125 g ai/ha) | Pigweed plant response rating ([7]; 31 g ai/ha) | Pigweed plant response rating ([7]; 125 g ai/ha) | Ragweed plant response rating ([8]; 31 g ai/ha) | Ragweed plant response rating ([8]; 125 g ai/ha) | Plant response rating, Corn (corn (Zea mays); 31 g ai/ha) | Plant response rating, Corn (corn (Zea mays); 125 g ai/ha) | Plant response rating, Ducksalad (0 to 100 scale, 0 is no effect, 100 is complete control) [9] | Plant response rating, Blackgrass ([10]; 31 g ai/ha) | Plant response rating, Blackgrass ([10]; 125 g ai/ha) | also measured
CC(F)c1nc(N[C@H](C)c2cc3ccccc3s2)nc(N)c1C(F)(F)F (stereo partly drawn) [Compound 108] | 0 | 50 | 70 | 90 | 75 | 30 | 50 | 0 | 35 | 30 | 30 | 70 | 90 | 50 | 70 | 0 | 10 | 30 | 0 | 0 | Ryegrass, Italian plant response rating ([11]; 31 g ai/ha): 0; Ryegrass, Italian plant response rating ([11]; 125 g ai/ha): 30; Plant response rating, Kochia (kochia (Kochia scoparia) [12]; 31 g ai/ha): 40; Plant response rating, Kochia (kochia (Kochia scoparia) [12]; 125 g ai/ha): 70; Plant response rating, Barnyardgrass ([13]; 31 g ai/ha): 20; Plant response rating, Barnyardgrass ([13]; 125 g ai/ha): 0; Plant response rating, Wheat ([14]; 31 g ai/ha): 0; Plant response rating, Wheat ([14]; 125 g ai/ha): 0; Barnyardgrass plant response rating ([15]; 31 g ai/ha): 40; Barnyardgrass plant response rating ([15]; 125 g ai/ha): 30; Plant response rating, Foxtail, Giant ([16]; 31 g ai/ha): 0; Plant response rating, Foxtail, Giant ([16]; 125 g ai/ha): 20; Plant response rating, Galium ([17]; 31 g ai/ha): 50; Plant response rating, Galium ([17]; 125 g ai/ha): 70; Kochia plant response rating (kochia (Kochia scoparia) [18]; 31 g ai/ha): 90; Kochia plant response rating (kochia (Kochia scoparia) [18]; 125 g ai/ha): 90
C[C@@H](Nc1nc(N)c(C(F)(F)F)c(C(F)F)n1)c1cc2ccccc2s1 [Compound 109] | 0 | 0 | 80 | 90 | 75 | 50 | 60 | 20 | 35 | 0 | 30 | 70 | 90 | 30 | 90 | 0 | 0 | 65 | 10 | 10 | Ryegrass, Italian plant response rating ([11]; 31 g ai/ha): 20; Ryegrass, Italian plant response rating ([11]; 125 g ai/ha): 40; Plant response rating, Kochia (kochia (Kochia scoparia) [12]; 31 g ai/ha): 50; Plant response rating, Kochia (kochia (Kochia scoparia) [12]; 125 g ai/ha): 70; Plant response rating, Barnyardgrass ([13]; 31 g ai/ha): 0; Plant response rating, Barnyardgrass ([13]; 125 g ai/ha): 0; Plant response rating, Wheat ([14]; 31 g ai/ha): 0; Plant response rating, Wheat ([14]; 125 g ai/ha): 0; Barnyardgrass plant response rating ([15]; 31 g ai/ha): 0; Barnyardgrass plant response rating ([15]; 125 g ai/ha): 0; Plant response rating, Foxtail, Giant ([16]; 31 g ai/ha): 0; Plant response rating, Foxtail, Giant ([16]; 125 g ai/ha): 20; Plant response rating, Galium ([17]; 31 g ai/ha): 40; Plant response rating, Galium ([17]; 125 g ai/ha): 70; Kochia plant response rating (kochia (Kochia scoparia) [18]; 31 g ai/ha): 80; Kochia plant response rating (kochia (Kochia scoparia) [18]; 125 g ai/ha): 90
